Counter-ions that a name gives are not always drawn.
Key:
Aurora 2 = target: T1, Aurora 2 (Homo sapiens, UniProt O14965); test: Aurora 2 kinase radioactivity scintillation test; assay type: biochemical
T1 construct: A complete recombinant Aurora 2 enzyme, the N-terminal end of which was labeled with histidine; His tag (N); made in house; host or cells: E. coli
T1 sequence (O14965 1-403): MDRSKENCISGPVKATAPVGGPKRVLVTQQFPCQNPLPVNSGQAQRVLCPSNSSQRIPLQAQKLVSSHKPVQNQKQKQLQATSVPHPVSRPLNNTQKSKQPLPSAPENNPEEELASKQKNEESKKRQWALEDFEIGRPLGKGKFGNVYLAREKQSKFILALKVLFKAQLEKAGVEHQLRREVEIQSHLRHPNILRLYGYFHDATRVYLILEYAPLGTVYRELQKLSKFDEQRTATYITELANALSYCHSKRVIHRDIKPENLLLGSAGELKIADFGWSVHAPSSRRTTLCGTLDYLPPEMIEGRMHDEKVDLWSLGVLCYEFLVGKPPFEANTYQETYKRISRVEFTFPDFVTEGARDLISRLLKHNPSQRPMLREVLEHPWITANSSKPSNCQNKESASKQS
Procedure: The inhibitory effect of the compounds toward the kinase Aurora 2 is determined via a radioactivity scintillation test.
A complete recombinant Aurora 2 enzyme, the N-terminal end of which was labeled with histidine, was expressed in E. coli and purified to a quality close to homogeneity.
The C-terminal fragment (Q1687-H2101) of an NuMA (nuclear protein which is associated with the Mitotic Apparatus) expressed in E. coli, and the N-terminal end of which was labeled with histidine, was purified by chromatography with nickel chelate and used as substrate in the Aurora 2 kinase test.
The kinase activity of Aurora 2 is measured by scintillation on a microplate saturated with nickel chelate (New England Nuclear, SMP107 model). Each well contains 100 μl of the following solution: 0.02 μM of Aurora 2; 0.5 μM of NuMA substrate; 1 μM of ATP supplemented with 0.5 μCi of ATP-[^33P]. The solutions are incubated for 45 minutes at 37° C. The test buffer is then removed and the wells are rinsed twice with 300 μl of kinase buffer. The radioactivity is measured in each well using a Packard Model Top Count NXT machine.
The background noise is measured in duplicate in wells containing the radioactive ATP alone containing buffered kinase treated in the same manner as for the other samples.
The activity of the control is determined by measuring in duplicate the radioactivity in the complete test mixture (ATP, Aurora 2 and NuMA substrate), in the absence of test compound.
The inhibition of the activity of Aurora 2 with a compound of the invention is expressed as a percentage of inhibition of the control activity in the absence of test compound. Staurosporin is added to each plate as inhibition control.

HeLa = HeLa proliferation; assay type: cell-based; settings: Homo sapiens, read-out: HeLa proliferation EC50 (nM) DG

Row | Compound | IC50 (Aurora 2) [nM] | EC50 (HeLa) [nM]
1 | CC(C)(O)CNc1ccc(S(=O)(=O)Oc2ccc3nc(NC(=O)C4CC4)sc3c2)cc1 [Example 11, 4-(2-hydroxy-2-methylpropylamino)benzene-sulfonic 2-(cyclopropanecarbonylamino)benzothiazol-6-yl ester] | 105 | 80
2 | CC(C)N(CCNc1ccc(S(=O)(=O)Oc2ccc3nc(NC(=O)C4CC4)sc3c2)cc1)C(C)C [Example 12, 4-(2-diisopropylaminoethylamino)benzenesulfonic 2-(cyclopropanecarbonylamino)benzothiazol-6-yl ester] | 172 | 16
3 | O=C(Nc1nc2ccc(OS(=O)(=O)c3cccs3)cc2s1)C1CC1 [Example 33h, Thiophene-2-sulfonic acid 2-(cyclopro-panecarbonylamino)benzothiazol-6-yl ester] | 68 | 4430
4 | CC(C)N(CCNc1ccc(S(=O)(=O)Oc2ccc3nc(NC(=O)C4(N)CCCC4)sc3c2)cc1)C(C)C [Example 41, 4-(2-diisopropylaminoethylamino)benzenesulfonic acid 2-[(1-aminocyclopentanecarbonyl)amino]benzothiazol-6-yl ester] | 325 | 8390
5 | CC(=O)Nc1nc2ccc(OS(=O)(=O)c3ccc(NCCN(C(C)C)C(C)C)cc3)cc2s1 [Example 43, 4-(2-Diisopropylaminoethylamino)benzenesulfonic acid 2-acetylaminobenzothiazol-6-yl ester] | 2010 | 36
6 | COCC(=O)Nc1nc2ccc(OS(=O)(=O)c3ccc(NCCN(C(C)C)C(C)C)cc3)cc2s1 [Example 44, 4-(2-Diisopropylaminoethylamino)benzenesulfonic acid 2-(2-methoxyacetylamino)benzothiazol-6-yl ester] | 3080 | 76
7 | CC(C)N(CCNc1ccc(S(=O)(=O)Oc2ccc3nc(NC(=O)C4CCCC4)sc3c2)cc1)C(C)C [Example 45, 4-(2-Diisopropylaminoethylamino)benzenesulfonic acid 2-(cyclo-pentanecarbonylamino)benzothiazol-6-yl ester] | 2890 | 289
8 | CC(C)C(=O)Nc1nc2ccc(OS(=O)(=O)c3ccc(NCCN(C(C)C)C(C)C)cc3)cc2s1 [Example 55, 4-(2-diisopropylaminoethylamino)benzenesulfonic acid 2-isobutyrylaminobenzothiazol-6-yl ester hydrochloride] | 5830 | 43
9 | CCC(=O)Nc1nc2ccc(OS(=O)(=O)c3ccc(NCCN(C(C)C)C(C)C)cc3)cc2s1 [Example 57, 4-(2-diisopropylaminoethylamino)benzenesulfonic acid 2-propionylaminobenzothiazol-6-yl ester hydrochloride] | 3180 | 79

Continued, values first:

Row | IC50 (Aurora 2) [nM] | EC50 (HeLa) [nM] | Compound
10 | 65 | 611 | O=C(Nc1nc2ccc(OS(=O)(=O)c3ccc(NCCCn4ccnc4)cc3)cc2s1)C1CC1 [Example 9, 4-(3-imidazol-1-ylpropylamino)benzenesulfonic 2-(cyclopropanecarbonylamino)benzothiazol-6-yl ester]
11 | 34 | 807 | CNc1ccc(S(=O)(=O)Oc2ccc3nc(NC(=O)C4CC4)sc3c2)cc1 [Example 10, 4-methylaminobenzenesulfonic 2-(cyclopropane-carbonylamino)benzothiazol-6-yl ester]
12 | 172 | 16 | CC(C)NCCNc1ccc(S(=O)(=O)Oc2ccc3nc(NC(=O)C4CC4)sc3c2)cc1 [Example 53, 4-(2-isopropylaminoethylamino)benzenesulfonic 2-(cyclopropanecarbonylamino)benzothiazol-6-yl ester hydrochloride]
13 | 2800 | 199 | CC(C)N(CCNc1ccc(S(=O)(=O)Oc2ccc3nc(NC(=O)C4CCC4)sc3c2)cc1)C(C)C [Example 60, 4-(2-diisopropylaminoethylamino)benzenesulfonic acid 2-(cyclobutanecarbonylamino)benzothiazol-6-yl ester hydrochloride]
14 | 1050 | 8370 | CC(C)(O)CNc1ccc(S(=O)(=O)Oc2ccc3nc(NC(=O)CCc4cccnc4)sc3c2)cc1 [Example 63, 4-(2-hydroxy-2-methylpropylamino)benzene-sulfonic acid 2-(3-pyrid-3-ylpropionylamino)benzothiazol-6-yl ester hydro-chloride]
15 | 826 | 122 | CC(=O)Nc1nc2ccc(OS(=O)(=O)c3ccc(NCCNC(C)C)cc3)cc2s1 [Example 65, 4-(2-isopropylaminoethylamino)benzenesulfonic acid 2-acetylaminobenzothiazol-6-yl ester]
16 | 6940 | > 12500 | O=C(Nc1nc2ccc(OS(=O)(=O)c3ccc(-c4ccccn4)s3)cc2s1)C1CC1 [Example 85, 5-pyridin-2-ylthiophene-2-sulfonic acid 2-(cyclopropanecarbonylamino)benzothiazol-6-yl ester]
17 | 258 | 2510 | CC(C)(CNc1ccc(S(=O)(=O)Oc2ccc3nc(NC(=O)C4CC4)sc3c2)cc1)OP(=O)(O)O [Example 89, 4-(2-methyl-2-phosphonooxypropylamino)benzene-sulfonic acid 2-(cyclopropanecarbonylamino)benzothiazol-6-yl ester]
